Data on two compounds can be found in patent US20110269811A1, “INHIBITORS OF SEMICARBAZIDE-SENSITIVE AMINE OXIDASE (SSAO) AND VAP-1 MEDIATED ADHESION USEFUL FOR TREATMENT AND PREVENTION OF DISEASES” (priority 2006, published 2011).

Structures are written as SMILES.

As usually defined, the inhibition is the relative decrease from the control value, in per cent.

The target of assay [1] is T1, M4 (h) (Homo sapiens, UniProt P08173).
T1 construct: expressed in transfected cells; host or cells: CHO cells
Nature of the assay: Receptor binding screen, [^3H]4-DAMP. The settings on record: 10 uM Concentration of Compound I-1-Z; read-out: Mean Value, percent inhibition of control specific binding: M4 (h).

Assay [2] addresses T2, MT1 (h) (Homo sapiens, UniProt P48039).
T2 construct: expressed in transfected cells; host or cells: CHO cells
Nature of the assay: Receptor binding screen, [^125I]iodomelatonin. The settings on record: 10 uM Concentration of Compound I-1-Z; read-out: Mean Value, percent inhibition of control specific binding: MT1 (h).

Assay [3] relates to experimental autoimmune encephalomyelitis. Nature of the assay: Experimental autoimmune encephalomyelitis (EAE), MOG peptide 35-55. Type of assay: in vivo, C57BL/6 mice. The settings on record: 40 mg/kg/dose once daily i.p. for 30 consecutive days. As for the experimental part:
SSAO/VAP-1 is expressed on the endothelium of inflamed tissues/organs including brain and spinal cord. Its ability to support lymphocyte transendothelial migration may be an important systemic function of SSAO/VAP-1 in inflammatory diseases such as multiple sclerosis and Alzheimer's disease. An analysis of the use of SSAO inhibitors to treat inflammatory disease of the central nervous system (CNS) was performed through the use of an experimental autoimmune encephalomyelitis model (EAE) in C57BL/6 mice. EAE in rodents is a well-characterized and reproducible animal model of multiple sclerosis in human (Benson J. M. et al. (2000) J. Clin. Invest. 106:1031). Multiple sclerosis is a chronic immune-mediated disease of the CNS characterized by patchy perivenular inflammatory infiltrates in areas of demyelination and axonal loss. As an animal model, EAE can be induced in mice by immunization with encephalitogenic myelin antigens in the presence of adjuvant. […]
To examine the role of SSAO/VAP-1 as a major regulator of the lymphocyte recruitment to the CNS, compound II-1-E, an SSAO inhibitor, was evaluated in an EAE model.
Twenty female C57BL/6 mice were immunized subcutaneously (s.c). with myelin oligodendrocyte glycoprotein 35-55 (MOG peptide 35-55) in Complete Freund Adjuvant (CFA) on day 0, followed by i.p. injections of 500 ng pertussis toxin (one pertussis toxin injection on day 0, a second pertussis toxin injection on day 2). Groups of 10 mice received either compound II-1-E 40 mg/kg/dose, once daily i.p. for 30 consecutive days), or vehicle control (once/day for 30 consecutive days) all starting from one day after the immunization and all administered i.p. The animals were monitored for body weight, signs of paralysis and death according to a 0-5 scale of scoring system as follows: 1=limp tail or waddling gait with tail tonicity; 2=waddling gait with limp tail (ataxia); 2.5=ataxia with partial limb paralysis; 3=full paralysis of one limb; 3.5=full paralysis of one limb with partial paralysis of second limb; 4=full paralysis of two limbs; 4.5=moribund; 5=death. […]

T2 sequence (P48039 whole entry): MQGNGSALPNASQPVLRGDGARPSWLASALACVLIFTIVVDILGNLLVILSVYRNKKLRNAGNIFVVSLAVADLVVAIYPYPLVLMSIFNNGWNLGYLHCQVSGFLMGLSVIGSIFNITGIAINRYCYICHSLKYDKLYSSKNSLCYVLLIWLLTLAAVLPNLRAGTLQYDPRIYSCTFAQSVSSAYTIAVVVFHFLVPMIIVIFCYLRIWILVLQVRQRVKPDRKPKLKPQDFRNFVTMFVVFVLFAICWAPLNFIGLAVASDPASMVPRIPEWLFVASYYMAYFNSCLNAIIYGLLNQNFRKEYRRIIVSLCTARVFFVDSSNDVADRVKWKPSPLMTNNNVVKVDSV
T1 sequence (P08173 whole entry): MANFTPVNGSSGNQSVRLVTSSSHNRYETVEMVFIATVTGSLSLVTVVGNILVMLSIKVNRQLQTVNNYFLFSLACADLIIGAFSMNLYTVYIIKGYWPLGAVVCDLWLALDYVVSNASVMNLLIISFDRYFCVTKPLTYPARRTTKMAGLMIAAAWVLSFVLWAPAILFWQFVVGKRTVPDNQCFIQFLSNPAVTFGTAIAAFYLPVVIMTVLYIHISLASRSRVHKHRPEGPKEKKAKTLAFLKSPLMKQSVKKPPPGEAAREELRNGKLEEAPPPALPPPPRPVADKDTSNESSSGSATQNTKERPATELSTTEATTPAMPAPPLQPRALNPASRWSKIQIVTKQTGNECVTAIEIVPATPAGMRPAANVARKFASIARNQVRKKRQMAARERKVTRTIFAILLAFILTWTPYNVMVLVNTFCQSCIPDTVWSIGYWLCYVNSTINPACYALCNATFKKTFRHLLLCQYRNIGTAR

As to `COc1ccc(C/C(=C/F)CN)cc1.Cl` [Compound I-1-Z, (Z)-3-Fluoro-2-(4-methoxybenzyl)-allylamine hydrochloride], the inhibition at 10 µM was determined as 22% in assay [1] and 0% in assay [2].

With `NC/C(F)=C\Cc1cc(F)cc(C(F)(F)F)c1` [II-1-E, (E)-2-Fluoro-4-(3-fluoro-5-trifluoromethylphenyl)-but-2-enylamine], in assay [3], the “day until which similar clinical scores between the two groups was not reached” value was determined as 38 days and the “mean clinical score of the treated group from day 14 onward” value is given as “well below that in the control group”. The “day at which disease reached 100% incidence” value in assay [3] (control group day 13) is 24 days.
